Laboratory results: patent US20240374552A1, “Compositions and Methods for Preventing or Reducing the Risk of Metabolic Syndrome” (priority 2021, published 2024)
In brackets after ≈: the same amount, converted by molar mass.

What was measured:
[1] = system: mice; experiment: Evaluation toxicity, 90-day daily intragastric administration in mice; assay type: in vivo; settings: for Percentage of dead mice (%): purity min 95%
Method: To investigate the toxicity of tyrphostin AG17 the following doses were tested in mice, the animals were randomly divided into experimental groups corresponding to different doses of tyrphostin. Tyrphostin was administered intragastric via daily for 90 days, after 90 days, the mice were weighed and sacrificed by cervical dislocation.
In a second evaluation for the treatments with 5.50 mg/kg to 55.50 mg/kg of tyrphostin, using a lot tyrphostin AG17 with a minimum purity of 98% is used; the percentage of dead mice is reduced to 0% and in the case of the treatment with 100.00 mg/kg, the deaths are reduced to 10%.

[2] = system: mice; experiment: Subacute toxicity, 14-day daily intragastric administration; assay type: in vivo
Method: Animal studies in male and female mice of the CDI strain, and male rats of the Wistar strain were used.
During the quarantine period (15 days) they were kept in a chamber with conditions of (22+2° C., 55+5% humidity and a light/dark cycle of 12:12 h), with food and water ad libitum. Prior to the start of the experiment, the animals (mice and rats) were deprived of food for 4 h, and recovered 2 h after the administration of the drug.
The test animals were randomly divided into experimental groups corresponding to different doses of the drug, as shown in Table 2.

[3] = Acute oral gavage toxicity; assay type: in vivo
[4] = in vivo, 10 mg
[5] = system: mice; experiment: Evaluation toxicity, 90-day daily intragastric administration in mice; assay type: in vivo; settings: for Percentage of dead mice (%): purity min 95%; remark: listed apart in the source
[6] = in vivo; settings: 10 mg, t1/2 (h)
[7] = pH 7.2; cited from earlier work
[8] = system: rat; settings: cited from earlier work

## CC(C)(C)c1cc(C=C(C#N)C#N)cc(C(C)(C)C)c1O [tyrphostin AG17, Tyrphostin AG17]
[1]; T1: 0.0001 mg/Kg daily 90 days
  Percentage of dead mice (%): 0%
[1]; T3: 0.001 mg/Kg daily 90 days
  Percentage of dead mice (%): 0%
[1]; T5: 0.175 mg/Kg daily 90 days
  Percentage of dead mice (%): 0%
[1]; T7: 0.76 mg/Kg daily 90 days
  Percentage of dead mice (%): 0%
[1]; T8: 1.70 mg/Kg daily 90 days
  Percentage of dead mice (%): 0%
[1]; T9: 1.75 mg/Kg daily 90 days
  Percentage of dead mice (%): 0%
[1]; doses below 1.75 mg/kg
  Signs of toxicity during 90-day treatment: no apparent signs of toxicity
[2]; 100.00 mg/kg
  Death, share of the population: 40%
[2]; 5.50 to 55.50 mg/kg
  Time until recovery from lethargy: 12 h
[2]; AT1: 0.175 mg/Kg daily 14 days
  Signs of subacute toxicity presented: No apparent signs
[2]; AT2: 0.55 mg/Kg daily 14 days
  Signs of subacute toxicity presented: No apparent signs
[2]; AT3: 1.75 mg/Kg daily 14 days
  Signs of subacute toxicity presented: No apparent signs
[2]; AT4: 5.50 mg/Kg daily 14 days
  Signs of subacute toxicity presented: Lethargy (10%)
[2]; AT4 group, 5.50 mg/kg
  Lethargy, share of the population: 10%
[2]; AT5: 55.50 mg/Kg daily 14 days
  Signs of subacute toxicity presented: Lethargy (20%)
[2]; AT5 group, 55.50 mg/kg
  Lethargy, share of the population: 20%
[2]; AT6: 100.00 mg/Kg daily 14 days
  Signs of subacute toxicity presented: Death (40%)
[3]; C57BL/6, mouse, in vivo
  LD50: 33.3 mg/kg
[3]; doses 1.75, 5.5 and 17.5 mg/kg
  Behavioral alterations: inhibition in locomotion and piloerection
[3]; doses of 1.75, 5.5 and 17.5 mg/kg
  Lethal effect: no lethal effect observed
[3]; doses of 28, 40 and 55.5 mg/kg
  Mortality: increase in mortality
[4]
  Vdapa (L), Geometric Mean: 22.038 L
  Vdapa (L), Mean: 22.537 L
  Vdapa (L), Median: 22.494 L
[5]; 5.50 mg/kg to 55.50 mg/kg, lot with minimum purity of 98%
  Percentage of dead mice, second evaluation: 0%
[5]; 100.00 mg/kg, lot with minimum purity of 98%
  Percentage of dead mice (deaths), second evaluation: 10%
[5]; T2: 0.000175 mg/Kg daily 90 days
  Percentage of dead mice (%): 0%
[5]; T4: 0.0175 mg/Kg daily 90 days
  Percentage of dead mice (%): 0%
[5]; T6: 0.18 mg/Kg daily 90 days
  Percentage of dead mice (%): 0%
[5]; T10: 5.50 mg/Kg daily 90 days
  Percentage of dead mice (%): 10%
[5]; T11: 17.50 mg/Kg daily 90 days
  Percentage of dead mice (%): 10%
[5]; T12: 25.00 mg/Kg daily 90 days
  Percentage of dead mice (%): 0%
[5]; T12: 25.00 mg/Kg daily 90 days, listed as tyrphostin
  Percentage of dead mice (%): did not show any dead mice
[5]; T13: 28.00 mg/Kg daily 90 days
  Percentage of dead mice (%): 10%
[5]; T14: 40.00 mg/Kg daily 90 days
  Percentage of dead mice (%): 10%
[5]; T15: 50.00 mg/Kg daily 90 days
  Percentage of dead mice (%): 20%
[5]; T16: 55.50 mg/Kg daily 90 days
  Percentage of dead mice (%): 20%
[5]; T17: 100.00 mg/Kg daily 90 days
  Percentage of dead mice (%): 40%
[6]; Geometric Mean
  half-life: 80.6 h
[6]; Mean
  half-life: 82.2 h
[6]; Median
  half-life: 75.2 h
[7]
  Solubility: ~150 µg/mL (≈ 531 µM)
[8]
  oral LD50: 87 mg/kg
